Test results as given in patent publication US10155767B2, “Therapeutic agent of acute myeloid leukemia containing 1,3,7-trisubstituted 3,4-dihydropyrimido[4,5-D]pyrimidine-2(1H)-one derivatives” (KOREA INSTITUTE OF SCIENCE AND TECHNOLOGY, priority 2016, dated 2018).

Columns and labels:
U937 (N-Ras WT) = experiment: Proliferation inhibitory activity, U937 cell line; type: cell-based; details: Homo sapiens, U-937; U937 (wt-NRAS) cell line; read-out: Proliferation inhibitory ability (GI50, μM) U937 (N-Ras WT)
Description: (§1) With respect to each of the compounds synthesized in Synthesis Examples, GI50 values were calculated by measuring proliferation inhibitory abilities for mt-NRAS (G12D) Ba/F3, U937 (wt-NRAS), and OCI-AML3 (mt-NRAS) cell lines.

ACK1 = ACK1 (Homo sapiens, UniProt Q07912); experiment: Kinase inhibitory activity, ACK1; type: biochemical
ACK1, sequence (Q07912 whole entry): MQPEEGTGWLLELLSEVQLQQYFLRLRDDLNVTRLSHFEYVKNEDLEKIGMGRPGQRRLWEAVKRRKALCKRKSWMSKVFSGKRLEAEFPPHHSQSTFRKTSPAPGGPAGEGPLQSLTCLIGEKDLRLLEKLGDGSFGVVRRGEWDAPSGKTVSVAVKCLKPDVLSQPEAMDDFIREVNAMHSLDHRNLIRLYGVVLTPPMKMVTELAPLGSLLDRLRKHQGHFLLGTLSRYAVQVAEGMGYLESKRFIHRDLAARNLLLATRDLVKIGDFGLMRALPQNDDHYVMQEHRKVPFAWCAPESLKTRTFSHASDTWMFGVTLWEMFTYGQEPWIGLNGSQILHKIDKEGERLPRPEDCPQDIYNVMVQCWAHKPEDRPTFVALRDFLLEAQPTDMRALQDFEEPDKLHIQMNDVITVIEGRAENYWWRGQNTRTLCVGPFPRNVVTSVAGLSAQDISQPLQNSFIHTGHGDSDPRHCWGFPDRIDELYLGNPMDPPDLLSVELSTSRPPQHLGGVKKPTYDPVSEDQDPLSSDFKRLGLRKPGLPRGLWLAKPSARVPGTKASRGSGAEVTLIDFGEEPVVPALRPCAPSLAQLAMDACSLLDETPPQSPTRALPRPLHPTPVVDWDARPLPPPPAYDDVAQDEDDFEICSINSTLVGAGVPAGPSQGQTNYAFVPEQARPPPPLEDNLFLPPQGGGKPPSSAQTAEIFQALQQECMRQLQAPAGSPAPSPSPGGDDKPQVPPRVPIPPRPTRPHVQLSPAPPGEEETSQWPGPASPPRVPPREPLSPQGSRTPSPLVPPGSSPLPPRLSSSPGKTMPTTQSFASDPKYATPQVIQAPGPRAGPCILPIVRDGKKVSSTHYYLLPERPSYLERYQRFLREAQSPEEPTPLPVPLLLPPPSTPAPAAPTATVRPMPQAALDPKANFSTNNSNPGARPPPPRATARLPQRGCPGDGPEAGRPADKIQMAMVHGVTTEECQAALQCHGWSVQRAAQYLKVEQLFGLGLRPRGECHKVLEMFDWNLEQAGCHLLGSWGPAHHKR
Description: (§2) With respect to the compounds of the present invention, IC50 values were calculated by measuring inhibitory ability for two kinases of GCK and ACK1.

Ba/F3 (N-Ras G12D) = experiment: Proliferation inhibitory activity, mt-NRAS (G12D) Ba/F3 cell line; type: cell-based; details: Mus musculus, BaF3, read-out: Proliferation inhibitory ability (GI50, μM) Ba/F3 (N-Ras G12D)
Description: as §1

OCI-AML3 (N-RasQ61L) = experiment: Proliferation inhibitory activity, OCI-AML3 cell line; type: cell-based; details: Homo sapiens, OCI-AML-3; OCI-AML3 (mt-NRAS) cell line; read-out: Proliferation inhibitory ability (GI50, μM) OCI-AML3 (N-RasQ61L)
Description: as §1

GCK = molecular target: T1, GCK (Homo sapiens, UniProt Q12851); experiment: Kinase inhibitory activity, GCK; type: biochemical
T1 sequence (Q12851 1-820): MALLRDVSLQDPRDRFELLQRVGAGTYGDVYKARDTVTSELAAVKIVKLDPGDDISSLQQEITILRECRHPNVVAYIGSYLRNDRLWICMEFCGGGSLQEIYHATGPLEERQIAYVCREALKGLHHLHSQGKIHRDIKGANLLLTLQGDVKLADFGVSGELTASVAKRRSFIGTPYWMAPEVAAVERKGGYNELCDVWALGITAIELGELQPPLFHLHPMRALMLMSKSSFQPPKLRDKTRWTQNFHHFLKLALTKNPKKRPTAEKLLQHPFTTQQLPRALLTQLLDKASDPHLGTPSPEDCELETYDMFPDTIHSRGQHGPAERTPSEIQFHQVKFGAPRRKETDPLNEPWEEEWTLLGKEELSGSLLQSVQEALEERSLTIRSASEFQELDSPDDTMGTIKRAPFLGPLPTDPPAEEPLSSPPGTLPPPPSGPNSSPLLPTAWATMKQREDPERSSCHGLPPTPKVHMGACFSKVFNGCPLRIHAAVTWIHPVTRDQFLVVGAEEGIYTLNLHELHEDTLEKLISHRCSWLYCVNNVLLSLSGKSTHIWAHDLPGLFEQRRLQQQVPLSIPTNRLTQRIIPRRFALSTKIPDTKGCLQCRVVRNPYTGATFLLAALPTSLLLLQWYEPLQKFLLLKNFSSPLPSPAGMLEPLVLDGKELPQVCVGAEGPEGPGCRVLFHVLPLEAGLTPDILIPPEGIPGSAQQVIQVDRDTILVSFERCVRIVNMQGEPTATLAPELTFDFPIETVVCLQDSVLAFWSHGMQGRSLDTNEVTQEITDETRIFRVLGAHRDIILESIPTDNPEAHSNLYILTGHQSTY
Description: as §2

GI50 (U937 (N-Ras WT)) [µM]	IC50 (ACK1) [nM]	GI50 (Ba/F3 (N-Ras G12D)) [µM]	GI50 (OCI-AML3 (N-RasQ61L)) [µM]	IC50 (GCK) [nM]	SMILES
1.2 to 2	< 30	< 0.2	< 0.2	< 30	CCN1CCN(c2ccc(Nc3ncc4c(n3)N(C)C(=O)N(c3cc(NC(=O)c5cccc(C(F)(F)F)c5)ccc3C)C4)cn2)CC1 [Compound 1, N-(3-(7-((6-(4-ethylpiperazin-1-yl)pyridin-3-yl)amino)-1-methyl-2-oxo-1,4-dihydropyrimido[4,5-d]pyrimidin-3-(2H)-yl)-4-methylphenyl)-3-(trifluoromethyl)benzamide]
< 0.2	45 to 100	< 0.2	< 0.2	< 30	CCN1CCN(c2cccc(Nc3ncc4c(n3)N(C)C(=O)N(c3cc(NC(=O)c5cccc(C(F)(F)F)c5)ccc3C)C4)c2)CC1 [Compound 2, N-(3-(7-((3-(4-ethylpiperazin-1-yl)phenyl)amino)-1-methyl-2-oxo-1,4-dihydropyrimido[4,5-d]pyrimidin-3-(2H)-yl)-4-methylphenyl)-3-(trifluoromethyl)benzamide]
0.7 to 1.2	< 30	< 0.2	0.2 to 0.7	< 30	Cc1ccc(NC(=O)c2cccc(C(F)(F)F)c2)cc1N1Cc2cnc(Nc3cnn(C)c3)nc2N(C)C1=O [Compound 3]
≥ 2	30 to 45	0.2 to 0.7	0.2 to 0.7	45 to 100	Cc1ccc(NC(=O)c2cccc(C(F)(F)F)c2)cc1N1Cc2cnc(Nc3ccccc3)nc2N(C)C1=O [Compound 4, N-(4-methyl-3-(1-methyl-2-oxo-7-(phenylamino)-1,4-dihydropyrimido[4,5-d]pyrimidin-3(2H)-yl)phenyl)-3-(trifluoromethyl)benzamide]
≥ 2	45 to 100	0.2 to 0.7	≥ 2	≥ 300	Cc1ccc(NC(=O)c2cccc(C(F)(F)F)c2)cc1N1Cc2cnc(NC3CCCCC3)nc2N(C)C1=O [Compound 5, N-(3-(7-(cyclohexylamino)-1-methyl-2-oxo-1,4-dihydropyrimido[4,5-d]pyrimidin-3(2H)-yl)-4-methylphenyl)-3-(trifluoromethyl)benzamide]
≥ 2	< 30	≥ 2	0.7 to 1.2	30 to 45	Cc1ccc(NC(=O)c2cccc(C(F)(F)F)c2)cc1N1Cc2cnc(NCCO)nc2N(C)C1=O [Compound 6, N-(3-(7-((2-hydroxylethyl)amino)-1-methyl-2-oxo-1,4-dihydropyrimido[4,5-d]pyrimidin-3(2H)-yl)-4-methylphenyl)-3-(trifluoromethyl)benzamide]
≥ 2	30 to 45	0.2 to 0.7	0.2 to 0.7	30 to 45	Cc1ccc(NC(=O)c2cccc(C(F)(F)F)c2)cc1N1Cc2cnc(NC3CC3)nc2N(C)C1=O [Compound 7, N-(3-(7-(cyclopropylamino)-1-methyl-2-oxo-1,4-dihydropyrimido[4,5-d]pyrimidin-3(2H)-yl)-4-methylphenyl)-3-(trifluoromethyl)benzamide]
